Patent US20110275685A1, “SALT AND POLYMORPHS OF A KINESIN INHIBITOR COMPOUND” (priority 2009, published 2011)
Structures can show the parent of a compound that is named as a salt. Where two headings read alike, the source gives them in different places.

How the values were obtained:
[1] = Solubility of the obtained material; assay type: physicochemical; details: thermodynamic from solid
Method: 2.40 g of amorphous N-((S)-3-amino-4-fluorobutyl)-N-((R)-1-(1-benzlyl-4-(2,5-difluoro-phenyl)-1H-imidazol-2-yl)-2,2-dimethylpropyl)-2-hydroxyacetamide were dissolved at 50° C. in 9 ml acetonitrile/water 95:5 v/v having a water activity of 0.6, and stirred. Within about 1 minute, a suspension was formed. Another 6 ml of acetonitrile/water 95:5 v/v were added. Subsequently, the suspension was cooled to room temperature in about 1 hour and stirred for 14 hours. Then, the suspension was filtered and air dried for about 5 minutes. Yield: 1.82 g (75%). The obtained material was analyzed by X-ray diffraction (FIG. 1).

[2] = Weight loss on drying by thermogravimetry (hygroscopicity); assay type: physicochemical; details: for hygroscopicity: judged from weight loss as prepared vs 1 day at 92% relative humidity
From the text: The weight loss (%) on drying, measured by thermogravimetry, of the salt as prepared was 1.12%. If kept for 1 day at 92% relative humidity, the weight loss was 1.71%.
The weight loss (%) on drying, measured by thermogravimetry, of the salt as prepared was 2.08%. If kept for 1 day at 92% relative humidity, the weight loss was 2.21%.
The weight loss (%) on drying, measured by thermogravimetry, of the salt as prepared was 1.76%. If kept for 1 day at 92% relative humidity, the weight loss was 2.14%.

[3] = Stability of liquid formulations of the salts; details: for stability in DMSO: either diluted or not
Method: From the mesylate, tosylate and hippurate salts as prepared above, liquid formulations were prepared by dissolving/suspending these salts in a solvent/suspension medium. Stability tests were made on these liquid formulations. The amount of degradation products and the degree of discoloration were established.

[4] = Solid state stability of the salts (HPLC, colour); details: Bulk (HPLC)
From the text: Tests for solid state stability were made for the mesylate, tosylate and hippurate salts as prepared above.

[5] = 0.1% solutions or suspensions, 1 week, 50° C., Methanol
[6] = 0.1% solutions or suspensions, 1 week, 50° C., pH 3
[7] = 0.1% solutions or suspensions, 1 week, 50° C., pH 4.5
[8] = 0.1% solutions or suspensions, 1 week, 50° C., pH 5
[9] = 0.1% solutions or suspensions, 1 week, 50° C., pH 7
[10] = 2% solutions or suspensions, 1 day, room temperature, DMSO
[11] = 2% solutions or suspensions, 1 day, room temperature, Dilution pH 6.8 (diluted with buffer 1:100)
[12] = 5% solutions, 1 day, room temperature, DMSO
[13] = 5% solutions, 1 day, room temperature, Dilution pH 6.8
[14] = 2 weeks, 50° C., tight container
[15] = Xenon light (approx. 1200 kLuxh)

hygroscopicity [2] | Amount of degradation products [%] [3, 5] | Amount of degradation products [%] [3, 6] | Amount of degradation products [%] [3, 7] | Amount of degradation products [%] [3, 8] | Amount of degradation products [%] [3, 9] | Amount of degradation products [%] [3, 10] | Amount of degradation products [%] [3, 11] | Amount of degradation products [%] [3, 12] | Amount of degradation products [%] [3, 13] | stability in DMSO [3] | Amount of degradation products [%] ([4]; 2 weeks, 50° C., 75% r.h.) | Amount of degradation products [%] [4, 14] | Amount of degradation products [%] [4, 15] | Compound | also measured
 |  |  |  |  |  |  |  |  |  |  |  |  |  | CC(C)(C)[C@H](c1nc(-c2cc(F)ccc2F)cn1Cc1ccccc1)N(CC[C@H](N)CF)C(=O)CO [crystalline form D, N-((S)-3-amino-4-fluorobutyl)-N-((R)-1-(1-benzlyl-4-(2,5-difluorophenyl)-1H-imidazol-2-yl)-2,2-dimethylpropyl)-2-hydroxyacetamide mesylate] | solubility ([1]; 0.1 N HCl, pH 1, simulated gastric fluid, read-out: solubility in 0.1 N HCl): 1400 µg/mL; solubility ([1]; buffer pH 6.8, pH 6.8, aqueous buffer, read-out: solubility in buffer with pH 6.8): 10 µg/mL; solubility ([1]; water, read-out: solubility in water): 4400 µg/mL
low hygroscopicity | 11.81% | 0.48% | 1.03% | 1.80% | 5.32% | 0.78% | 0.82% | 0.94% | 0.84% | very stable | 1.02% | 0.79% | 0.43% | CC(C)(C)[C@H](c1nc(-c2cc(F)ccc2F)cn1Cc1ccccc1)N(CC[C@H](N)CF)C(=O)CO [Hippurate, N-((S)-3-amino-4-fluorobutyl)-N-((R)-1-(1-benzlyl-4-(2,5-difluorophenyl)-1H-imidazol-2-yl)-2,2-dimethylpropyl)-2-hydroxyacetamide] | weight loss (%) on drying, measured by thermogravimetry ([2]; kept for 1 day at 92% relative humidity, listed as hippurate salt): 2.14%; weight loss (%) on drying, measured by thermogravimetry ([2]; salt as prepared, listed as hippurate salt): 1.76%
low hygroscopicity | 0.21% | 0.25% | 0.69% | 0.71% | 3.87% | 0.07% | 0.19% | <0.05% | 0.30% | very stable | <0.05% | 0.07% | <0.05% | CC(C)(C)[C@H](c1nc(-c2cc(F)ccc2F)cn1Cc1ccccc1)N(CC[C@H](N)CF)C(=O)CO [Mesylate, N-((S)-3-amino-4-fluorobutyl)-N-((R)-1-(1-benzlyl-4-(2,5-difluorophenyl)-1H-imidazol-2-yl)-2,2-dimethylpropyl)-2-hydroxyacetamide] | weight loss (%) on drying, measured by thermogravimetry ([2]; kept for 1 day at 92% relative humidity, listed as mesylate salt): 2.21%; weight loss (%) on drying, measured by thermogravimetry ([2]; salt as prepared, listed as mesylate salt): 2.08%; stability in methanol ([3]; in methanol): very stable
low hygroscopicity |  |  |  |  |  |  |  |  |  |  |  |  |  | CC(C)(C)[C@H](c1nc(-c2cc(F)ccc2F)cn1Cc1ccccc1)N(CC[C@H](N)CF)C(=O)CO [Tosylate, N-((S)-3-amino-4-fluorobutyl)-N-((R)-1-(1-benzlyl-4-(2,5-difluorophenyl)-1H-imidazol-2-yl)-2,2-dimethylpropyl)-2-hydroxyacetamide] | weight loss (%) on drying, measured by thermogravimetry ([2]; kept for 1 day at 92% relative humidity, listed as tosylate salt): 1.71%; weight loss (%) on drying, measured by thermogravimetry ([2]; salt as prepared, listed as tosylate salt): 1.12%; Amount of degradation products [%] (1 week, 0.1 %): 0.35%; Amount of degradation products [%] (1 week, 0.1 %, pH 3): 0.27%; Amount of degradation products [%] (1 week, 0.1 %, pH 4.5): 0.59%; Amount of degradation products [%] (1 week, 0.1 %, pH 5): 1.81%; Amount of degradation products [%] (1 week, 0.1 %, pH 7): 7.60%; Amount of degradation products [%] (1 day, 0.02 %, pH 6.8): 0.33%; Amount of degradation products [%] (1 day, 2 %): 0.14%; Amount of degradation products [%] (1 day, 5 %): 0.15%; Amount of degradation products [%] (1 day, pH 6.8): 0.11%
